Where two headings read alike, the source gives them in different places. Square brackets hold non-standard residues; d marks the D form. Peptide text beside a SMILES is read from it. * marks the point of attachment. X1 = COc1cccc2c1C(=O)c1c(O)c3c(c(O)c1C2=O)C[C@@](O)(C(CO)=NNC(=O)CCCCCN1C(=O)CC(*)C1=O)C[C@@H]3O[C@H]1C[C@H](N)[C@H](O)[C@H](C)O1; Pra = C#CC[C@H](N)C(=O)O
What was measured:
[1] = system: NCI-H460 (lung cancer cell line); conditions: for E max (% inhibition): inhibition at highest concentration tested (100 μM)
Description: (§1) The cell growth inhibition of each compound was evaluated using the MTT (3-[4,5-dimethylthiazol-2-yl]-2,5-diphenyltetrazolium bromide) assay. MCF-7 and MRC-5 cells were grown on a Minimum Essential Medium Eagle, while NCI-H460 and NCI/ADR-RES cells were grown on RPMI 1640 culture medium. All culture mediums were supplemented with 10% FBS (fetal bovine serum) and 1% penicillin-streptomycin-glutamine mix. […] MCF-7 (100,000 cells/mL), NCI-H460 (150,000 cells/mL), NCI/ADR-RES (150,000 cells/mL), or MRC-5 (100,000 cells/mL) cells were seeded the day before in sterile 96-well plates (100 μL/well). Then, cells were incubated with each concentration of the compound (100 μL/well) for the specified time for each cell line. The compounds were previously dissolved in DMSO and diluted at the time of the experiment with complete medium to the concentration to be tested. The DMSO content of each well was maintained at less than 1%. All concentrations were carried out with triplicate points, and controls with DMSO at the same proportion in which the compounds were dissolved were included in all experiments. After the incubation time, the samples were removed, and 100 μL of complete medium with 0.5 mg/mL MTT was added to each well. Cells were incubated for 4 h, and the medium was removed. The resulting formazan crystals were dissolved in DMSO (100 μL/well). The absorbance of each well at 595 nm was acquired with a Tecan Infinite F200Pro plate reader. A blank subtraction was performed (cells treated with Triton X-100), and the data were normalized to the value of the untreated cells (100% viability). Data were analyzed with GraphPad Prism software.

NCI/ADR-RES cells [2] = test: Confocal microscopy internalization and colocalization; conditions: 50 μM, 2 h
[3] = system: NCI/ADR-RES (doxorubicin-resistant ovarian cancer cell line); test: MTT cell growth inhibition, NCI/ADR-RES; type: cell-based; conditions: for E max (% inhibition): inhibition at highest concentration tested (100 μM)
Description: as §1

[4] = Hydrazone stability / DOX release followed by mass spectrometry; type: physicochemical; conditions: 200 μM; for stability (DOX release) at pH 5.0: pH 5.0 (10 mM citrate buffer), followed over 72 h; for stability (DOX release) at physiological pH: pH 7.0 (H2O), 72 h
[5] = system: MCF-7 (breast cancer cell line); test: MTT cell growth inhibition, MCF-7; type: cell-based; conditions: for E max (% inhibition): inhibition at highest concentration tested (100 μM), triplicate points
Description: as §1

NCI/ADR-RES cells [6] = test: Cell uptake by RP-HPLC of cell lysates; conditions: 100 μM, 120 min, 37 °C minus 4 °C, ACN/H2O extraction, RP-HPLC 460 nm, normalized vs initial concentration incubated
Description: NCI/ADR-RES cells (10^6) were seeded in T-25 Flasks. After 24 h, the medium was removed, and a solution of DOX or CP1T NBD -DOX (100 μM) in culture medium (7 mL) was added. The cells were incubated for 120 min at 37 °C under a CO2 atmosphere (5%). Then, the medium was removed, and the cells were washed with cold PBS (3 × 3 mL). After washing, a mixture of ACN/H2O (1.5 mL, 80:20) was added to the flask and incubated overnight at 4 °C. Solvent samples were transferred to 1.5 mL Eppendorf and centrifuged at 12,000 g for 15 min at 4 °C, and the supernatant was evaporated to dryness. Analogous experiments were carried out by incubating the compounds at 4 °C for 120 min to determine the nonspecific binding to the cell membrane, since the uptake is decreased at this temperature. To evaluate the efficiency of solvent extraction, 10^6 cells were seeded in a T-25 Flask. […] The resulting lysates were analyzed by RP-HPLC by dissolving the Eppendorf samples in an aqueous solution of TFA (1%, 100 μL). All of the intracellular compound quantities were calculated from the detected area and divided by the efficiency of solvent extraction. Cell uptake was calculated by subtracting the intracellular compound quantity from the assay carried out at 37 °C from the quantity obtained at 4 °C and normalized to 100% vs the initial concentration incubated.

[7] = system: MRC-5 (human embryonic lung cell line); test: MTT cytotoxicity in noncancerous fibroblasts MRC-5; type: cell-based; conditions: MRC-5 fibroblasts, 7 days incubation
[8] = system: NCI-H460 (lung cancer cell line); test: cells; conditions: Homo sapiens, NCI-H460, 48 h
Description: as §1

[9] = NCI-H460, 48 h incubation, MTT, calculated only if E max > 50%
[10] = NCI/ADR-RES, 72 h incubation, MTT
[11] = MCF-7, 96 h incubation, MTT, 50% growth inhibition, calculated only if E max > 50%, read-out: IC50
[12] = NCI/ADR-RES, 48 h incubation, MTT, calculated only if E max > 50%, read-out: IC50
[13] = NCI/ADR-RES, 72 h incubation, MTT, calculated only if E max > 50%, read-out: IC50
[14] = NCI/ADR-RES, 48 h incubation, MTT

Row | Structure (SMILES) | IC50 [1, 9] [µM] | E max (% inhibition) ([1]; NCI-H460, 48 h incubation, MTT) | cell internalization / localization by confocal microscopy (NCI/ADR-RES cells [2]) | E max (% inhibition) [3, 10] [% inhibition] | IC50 [5, 11] [µM] | E max (% inhibition) ([5]; MCF-7, 96 h incubation, MTT) | IC50 [3, 12] [µM] | IC50 [3, 13] [µM] | E max (% inhibition) [3, 14] [% inhibition] | further results
1 | C#CC[C@@H]1NC(=O)[C@@H](Cc2c[nH]c3ccccc23)NC(=O)[C@H](CO)NC(=O)[C@@H](CCCCN)NC(=O)[C@H](CO)NC(=O)[C@@H](CSC2CC(=O)N(CCCCCC(=O)NN=C(CO)[C@]3(O)Cc4c(O)c5c(c(O)c4[C@@H](O[C@H]4C[C@H](N)[C@H](O)[C@H](C)O4)C3)C(=O)c3c(OC)cccc3C5=O)C2=O)NC(=O)[C@H](CCC(N)=O)NC(=O)[C@@H](CCCCN)NC1=O (stereo partly drawn) [CP1-DOX] (cyclo(Q[dC](X1)S[dK]S[dW][Pra][dK])) | 2.8 ± 0.1 | 75 ± 1 | mainly trapped in small compartments of the cytoplasm | 22 ± 4 | 3.5 ± 0.3 | 81 ± 1 |  |  |  | stability (DOX release) at pH 5.0 [4]: drug release was observed after 72 h under these conditions, although part of the cyclic peptide conjugate survived after this time; stability (DOX release) at physiological pH [4]: much more stable at physiological pH, with a small release of the drug after 72 h
2 | CCCCCCCCCCn1cc(C[C@@H]2NC(=O)[C@@H](Cc3c[nH]c4ccccc34)NC(=O)[C@H](CO)NC(=O)[C@@H](CCCCN)NC(=O)[C@H](CO)NC(=O)[C@@H](CSC3CC(=O)N(CCCCCC(=O)NN=C(CO)[C@]4(O)Cc5c(O)c6c(c(O)c5[C@@H](O[C@H]5C[C@H](N)[C@H](O)[C@H](C)O5)C4)C(=O)c4c(OC)cccc4C6=O)C3=O)NC(=O)[C@H](CCC(N)=O)NC(=O)[C@@H](CCCCN)NC2=O)nn1 (stereo partly drawn) [CP1T10-DOX] | 3.1 ± 0.1 | 93 ± 1 | cells with a colored nucleus | 84 ± 3 | 3.4 ± 0.4 | 89 ± 1 | 38.4 ± 0.7 | 10.8 ± 1.7 |  | stability (DOX release) at pH 5.0 [4]: the molecular ion corresponding to the drug is still very minor after this time; stability (DOX release) at physiological pH [4]: much more stable at physiological pH, with a small release of the drug after 72 h
3 | CCCCCCCCCCn1cc(C[C@@H]2NC(=O)[C@@H](Cc3c[nH]c4ccccc34)NC(=O)[C@H](CO)NC(=O)[C@@H](CCCCN)NC(=O)[C@H](CO)NC(=O)[C@@H](CS)NC(=O)[C@H](CCC(N)=O)NC(=O)[C@@H](CCCCN)NC2=O)nn1 [CP1T10] |  | 28 ± 1 |  |  | 78.8 ± 0.1 | 59 ± 1 | 68.9 ± 2.1 |  | 70 ± 2 | 
4 | CCCCCCCCCCCCCCn1cc(C[C@@H]2NC(=O)[C@@H](Cc3c[nH]c4ccccc34)NC(=O)[C@H](CO)NC(=O)[C@@H](CCCCN)NC(=O)[C@H](CO)NC(=O)[C@@H](CSC3CC(=O)N(CCCCCC(=O)NN=C(CO)[C@]4(O)Cc5c(O)c6c(c(O)c5[C@@H](O[C@H]5C[C@H](N)[C@H](O)[C@H](C)O5)C4)C(=O)c4c(OC)cccc4C6=O)C3=O)NC(=O)[C@H](CCC(N)=O)NC(=O)[C@@H](CCCCN)NC2=O)nn1 (stereo partly drawn) [CP1T14-DOX] |  |  |  |  |  |  |  | 5.7 ± 2.7 | 44 ± 4 | 
5 | COc1cccc2c1C(=O)c1c(O)c3c(c(O)c1C2=O)C[C@@](O)(C(CO)=NNC(=O)CCCCCN1C(=O)CC(SC[C@H]2NC(=O)[C@H](CCC(N)=O)NC(=O)[C@@H](CCCCN)NC(=O)[C@H](Cc4cn(CCCCC(=O)NCCNc5ccc([N+](=O)[O-])c6nonc56)nn4)NC(=O)[C@@H](Cc4c[nH]c5ccccc45)NC(=O)[C@H](CO)NC(=O)[C@@H](CCCCN)NC(=O)[C@H](CO)NC2=O)C1=O)C[C@@H]3O[C@H]1C[C@H](N)[C@H](O)[C@H](C)O1 (stereo partly drawn) [CP1T NBD -DOX] |  |  |  |  |  |  |  | 3.7 ± 0.2 | 30 ± 3 | cell uptake (NCI/ADR-RES cells [6]): 56.34%
6 | C#CC[C@@H]1NC(=O)[C@@H](Cc2c[nH]c3ccccc23)NC(=O)[C@H](CO)NC(=O)[C@@H](CCCCN)NC(=O)[C@H](CO)NC(=O)[C@@H](CS)NC(=O)[C@H](CCC(N)=O)NC(=O)[C@@H](CCCCN)NC1=O [CP1] (cyclo([Pra][dK]Q[dC]S[dK]S[dW])) |  |  |  |  |  |  |  |  | 90 ± 1 | IC50 ([1]; 48 h): 37.9 ± 0.4 µM; IC50 ([3]; 48 h): 55.8 ± 0.7 µM; IC50 ([5]; 96 h): 17.7 ± 0.3 µM
7 | C#CC[C@@H]1NC(=O)[C@@H](Cc2c[nH]c3ccccc23)NC(=O)[C@H](CO)NC(=O)[C@@H](CSC2CC(=O)N(CCCCCC(=O)NN=C(CO)[C@]3(O)Cc4c(O)c5c(c(O)c4[C@@H](O[C@H]4C[C@H](N)[C@H](O)[C@H](C)O4)C3)C(=O)c3c(OC)cccc3C5=O)C2=O)NC(=O)[C@H](CO)NC(=O)[C@@H](CCCNC(=N)N)NC(=O)[C@H](CCC(N)=O)NC(=O)[C@@H](CCCCN)NC1=O (stereo partly drawn) [CP2-DOX] (cyclo(Q[dR]S[dC](X1)S[dW][Pra][dK])) | 2.9 ± 0.3 | 92 ± 1 | minimum cell internalization | 13 ± 1 | 1.8 ± 0.2 | 80 ± 1 |  |  |  | 
8 | CCCCCCCCCCn1cc(C[C@@H]2NC(=O)[C@@H](Cc3c[nH]c4ccccc34)NC(=O)[C@H](CO)NC(=O)[C@@H](CSC3CC(=O)N(CCCCCC(=O)NN=C(CO)[C@]4(O)Cc5c(O)c6c(c(O)c5[C@@H](O[C@H]5C[C@H](N)[C@H](O)[C@H](C)O5)C4)C(=O)c4c(OC)cccc4C6=O)C3=O)NC(=O)[C@H](CO)NC(=O)[C@@H](CCCNC(=N)N)NC(=O)[C@H](CCC(N)=O)NC(=O)[C@@H](CCCCN)NC2=O)nn1 (stereo partly drawn) [CP2T10-DOX] | 1.7 ± 0.1 | 93 ± 1 | cells with a colored nucleus | 64 ± 7 | 2.6 ± 0.3 | 88 ± 1 | 33.4 ± 0.3 | 21.8 ± 6.4 |  | 
9 | CCCCCCCCCCn1cc(C[C@@H]2NC(=O)[C@@H](Cc3c[nH]c4ccccc34)NC(=O)[C@H](CO)NC(=O)[C@@H](CS)NC(=O)[C@H](CO)NC(=O)[C@@H](CCCNC(=N)N)NC(=O)[C@H](CCC(N)=O)NC(=O)[C@@H](CCCCN)NC2=O)nn1 [CP2T10] |  | 80 ± 2 |  |  |  | 63 ± 1 |  |  | 75 ± 2 | IC50 ([3]; 48 h): 68.2 ± 4.6 µM; IC50 ([5]; 96 h): 50.2 ± 0.6 µM
10 | CCCCCCCCCCCCCCn1cc(C[C@@H]2NC(=O)[C@@H](Cc3c[nH]c4ccccc34)NC(=O)[C@H](CO)NC(=O)[C@@H](CSC3CC(=O)N(CCCCCC(=O)NN=C(CO)[C@]4(O)Cc5c(O)c6c(c(O)c5[C@@H](O[C@H]5C[C@H](N)[C@H](O)[C@H](C)O5)C4)C(=O)c4c(OC)cccc4C6=O)C3=O)NC(=O)[C@H](CO)NC(=O)[C@@H](CCCNC(=N)N)NC(=O)[C@H](CCC(N)=O)NC(=O)[C@@H](CCCCN)NC2=O)nn1 (stereo partly drawn) [CP2T14-DOX] |  |  |  | 51 ± 4 |  |  |  | 8.2 ± 0.8 | 39 ± 9 | E max (% inhibition) ([3]; NCI/ADR-RES, 72 h incubation, MTT, listed as CP2T 14 -DOX): good activity
11 | C#CC[C@@H]1NC(=O)[C@@H](Cc2c[nH]c3ccccc23)NC(=O)[C@H](CO)NC(=O)[C@@H](CS)NC(=O)[C@H](CO)NC(=O)[C@@H](CCCNC(=N)N)NC(=O)[C@H](CCC(N)=O)NC(=O)[C@@H](CCCCN)NC1=O [CP2] (cyclo([Pra][dK]Q[dR]S[dC]S[dW])) |  | 8 ± 1 |  |  |  | 48 ± 1 |  |  |  | 
12 | N.N.[Cl][Pt][Cl] [Cisplatin, cisplatin, reference compound] | 5.1 ± 0.6 | 53 ± 1 |  |  | 7.8 ± 0.6 | 78 ± 1 | 11.5 ± 0.6 |  | 90 ± 1 | 
13 | COc1cccc2c1C(=O)c1c(O)c3c(c(O)c1C2=O)C[C@@](O)(C(=O)CO)C[C@@H]3O[C@H]1C[C@H](N)[C@H](O)[C@H](C)O1 [DOX, doxorubicin] |  | 56 ± 1 | no significant internalization |  |  | 86 ± 1 |  |  | 36 ± 4 | cell uptake (NCI/ADR-RES cells [6]): 21.56%; cytotoxicity in MRC-5 [7]: significant cytotoxicity; E max (% inhibition) ([3]; NCI/ADR-RES, 48 h incubation, MTT, listed as doxorubicin): 36 % inhibition; IC50 [8]: 9.3 ± 1.7 µM; IC50 ([5]; Homo sapiens, MCF7, MCF-7, 96 h incubation, MTT, 50% growth inhibition, calculated only if E max > 50%, read-out: IC50): 0.82 ± 0.1 µM

— paper PMC12442009, “Self-Assembling Cyclic Peptide Nanotubes for the Delivery of Doxorubicin into Drug-Resistant Cancer Cells” (ACS Applied Materials & Interfaces, 2025)
